# ChEMBL document CHEMBL1821652, “QSAR models for predicting enzymatic hydrolysis of new chemical entities in 'soft-drug' design” (Bioorg Med Chem, 2009)
# Test: Half life in human plasma
# Type: ADME, cell-free
row,Compound,half-life [min]
1,Nc1ccc(S(=O)(=O)N(COC(=O)c2ccccc2)c2cncs2)cc1,0.12
2,CCCCC(=O)OCn1cnc2c1c(=O)n(C)c(=O)n2C,0.19
3,CCOC(=O)CNC(=O)OCOC(=O)c1ccccc1,0.24
4,CCOC(=O)CN(C)C(=O)OCOC(=O)c1ccccc1,0.41
5,CCOC(=O)CNC(=O)OCOC(=O)c1cccnc1,0.43
6,CCCN(CCC)Cc1cccc(C(=O)OCCOCn2cnc3c(=O)[nH]c(N)nc32)c1,0.8
7,CCOC(=O)c1ccc(/N=N/N(C)C(=O)OCOC(=O)c2ccccc2OC(C)=O)cc1,1
8,Nc1ccc(S(=O)(=O)N(COC(=O)c2ccccc2)c2ncccn2)cc1,1.38
9,CCOC(=O)CNC(=O)OCOC(=O)C(C)(C)Oc1ccc(Cl)cc1,1.63
10,CCCCC(=O)OCN1C(=O)NC(c2ccccc2)(c2ccccc2)C1=O,1.9
11,CS(=O)(=O)N(COC(=O)c1ccccc1)c1ccc([N+](=O)[O-])cc1Oc1ccccc1,1.93
12,CCCCN(CCCC)Cc1cccc(C(=O)OCCOCn2cnc3c(=O)[nH]c(N)nc32)c1,2.3
13,CCOC(=O)CN(C)C(=O)OCOC(=O)[C@@H](C)c1ccc2cc(OC)ccc2c1,2.72
14,COC(=O)[C@@H]1CCCN1C(=O)OCOC(=O)c1ccccc1,3.48
15,CCOC(=O)CNC(=O)OCOC(=O)Cc1ccccc1Nc1c(Cl)cccc1Cl,4.17
16,Nc1nc2c(ncn2COCCOC(=O)c2cccc(CN3CCOCC3)c2)c(=O)[nH]1,4.6
17,CCOC(=O)CN(COC(=O)[C@@H]1N2C(=O)[C@@H](NC(=O)Cc3ccccc3)[C@H]2SC1(C)C)C(=O)c1ccccc1,5.1
18,O=C(OC[C@H]1O[C@@H](n2cc(F)c(=O)[nH]c2=O)C[C@@H]1O)[C@@H]1CCCN1,5.7
19,Cc1noc(N(COC(=O)c2ccccc2)S(=O)(=O)c2ccc(N)cc2)c1C,5.78
20,O=C(OC[C@H]1O[C@@H](n2cc(F)c(=O)[nH]c2=O)C[C@@H]1OC(=O)[C@@H]1CCCN1)[C@@H]1CCCN1,6
21,C[C@H](NC(=O)[C@H](N)CCC(=O)OCc1ccc([N+](=O)[O-])cc1)C(=O)O,6.8
22,CC(=O)OCOC(=O)N(C)/N=N/c1ccc(C#N)cc1,7
23,CN(C)Cc1cccc(C(=O)OCCOCn2cnc3c(=O)[nH]c(N)nc32)c1,7
24,C[C@H](NC(=O)[C@H](N)CC(=O)OCc1ccc([N+](=O)[O-])cc1)C(=O)O,7.2

row,Compound,half-life [min]
1,CCN(CC)Cc1cccc(C(=O)OCCOCn2cnc3c(=O)[nH]c(N)nc32)c1,7.5
2,Nc1nc2c(ncn2COCCOC(=O)c2cccc(CN3CCCCC3)c2)c(=O)[nH]1,8.5
3,CCN(CC)C(=O)COC(=O)[C@H]1O[C@@H](Oc2cc3oc(-c4ccc(O)cc4)cc(=O)c3c(O)c2O)[C@H](O)[C@@H](O)[C@@H]1O,10
4,CCOC(=O)CN(COC(=O)[C@@H]1N2C(=O)[C@@H](NC(=O)c3c(-c4c(Cl)cccc4Cl)noc3C)[C@H]2SC1(C)C)C(=O)c1ccccc1,10.1
5,Cc1ncc([N+](=O)[O-])n1CCOC(=O)CCCCCCCCC(=O)OCCn1c([N+](=O)[O-])cnc1C,10.2
6,CCCCOC(=O)[C@H](Cc1ccccc1)NC(=O)CN.Cl,11.5
7,CCOC(=O)c1ccc(/N=N/N(C)C(=O)OCOC(C)=O)cc1,12
8,CCOC(=O)CN(COC(=O)c1ccccc1)C(=O)c1ccccc1,12
9,O=C(O[C@H]1C[C@H](n2cc(F)c(=O)[nH]c2=O)O[C@@H]1CO)[C@@H]1CCCN1,13.8
10,CC(=O)OCOC(=O)N(C)/N=N/c1ccc(C)cc1,15
11,Cc1ncc([N+](=O)[O-])n1CCOC(=O)CCCCC(=O)OCCn1c([N+](=O)[O-])cnc1C,16.8
12,CC(=O)OCOC(=O)N(C)/N=N/c1ccc(Br)cc1,17
13,CCCCC(=O)OC[C@H]1O[C@@H](n2cnc3c(NC4CCCC4)ncnc32)[C@H](O)[C@@H]1O,18
14,Cc1cn([C@H]2C=C[C@@H](COC(=O)CN3CCNCC3)O2)c(=O)[nH]c1=O,20
15,CCOC(=O)CNC(=O)OCOC(=O)c1ccccc1Nc1cccc(C(F)(F)F)c1,21.8
16,CCOC(=O)CSCC(=O)[C@@]12OC(C)(C)O[C@@H]1C[C@H]1[C@@H]3C[C@H](F)C4=CC(=O)C=C[C@]4(C)[C@@]3(F)[C@@H](O)C[C@@]12C,24
17,CC(C)C(=O)Oc1ccc2c3c1O[C@H]1C(=O)CC[C@@]4(O)[C@@H](C2)N(CC2CC2)CC[C@]314,24.6
18,CCN(CC)Cc1ccc(C(=O)OCCOCn2cnc3c(=O)[nH]c(N)nc32)cc1,17
19,CCCCC/C=C\C/C=C\C/C=C\CCCCC(=O)OCn1cnc2c1c(=O)n(C)c(=O)n2C,27.3
20,CCCCCCCC(=O)OC[C@H]1O[C@@H](n2cnc3c(NC4CCCC4)ncnc32)[C@H](O)[C@@H]1O,28
21,NCCCC[C@H](N)C(=O)OC[C@H]1O[C@@H](n2cc(F)c(=O)[nH]c2=O)C[C@@H]1OC(=O)[C@@H](N)CCCCN,29.5
22,Cc1cn([C@H]2C=C[C@@H](COC(=O)CN(C)C)O2)c(=O)[nH]c1=O,30
23,CCC(=O)Oc1c(-c2ccc(O)c(O)c2)oc2cc(O)cc(O)c2c1=O,31.2
24,CC(C)CC(=O)Oc1ccc2c3c1O[C@H]1C(=O)CC[C@@]4(O)[C@@H](C2)N(CC2CC2)CC[C@]314,32.4

row,Compound,half-life [min]
1,CN(C)Cc1ccc(C(=O)OCCOCn2cnc3c(=O)[nH]c(N)nc32)cc1,33
2,CCN(CC)CC(=O)OCCn1c([N+](=O)[O-])cnc1C.Cl,33.6
3,CCOC(=O)c1ccc(/N=N/N(C)C(=O)OCOC(=O)c2ccccc2O)cc1,34
4,Cc1ncc([N+](=O)[O-])n1CCOC(=O)CCCC(=O)OCCn1c([N+](=O)[O-])cnc1C,36.6
5,COc1ccc2cc([C@H](C)C(=O)OCCOCCO)ccc2c1,38.6
6,NCCCC[C@H](N)C(=O)OC[C@H]1O[C@@H](n2cc(F)c(=O)[nH]c2=O)C[C@@H]1O,38.8
7,CC(C)OC(=O)Oc1ccc2c3c1O[C@H]1C(=O)CC[C@@]4(O)[C@@H](C2)N(CC2CC2)CC[C@]314,39
8,O=C(OCN(C(=O)c1ccccc1)c1ccccc1)c1ccccc1,40
9,Cc1cc(C)nc(N(COC(=O)c2ccccc2)S(=O)(=O)c2ccc(N)cc2)n1,41.4
10,CCCCCCCCOC(=O)[C@H](Cc1ccccc1)NC(=O)CN.Cl,42.5
11,O=C(OC[C@H]1O[C@@H](n2cnc3c(NC4CCCC4)ncnc32)[C@H](O)[C@@H]1O)C1CCCCC1,45
12,CCCN(CCC)S(=O)(=O)c1ccc(C(=O)OCN(CC(=O)OCC)C(=O)c2ccccc2)cc1,46
13,CCC1CCN(CC(=O)OCCn2c([N+](=O)[O-])cnc2C)CC1,46.5
14,CCOC(=O)c1ccc(/N=N/N(C)C(=O)OCOC(=O)c2ccccc2)cc1,47
15,NCCCC[C@H](N)C(=O)O[C@H]1C[C@H](n2cc(F)c(=O)[nH]c2=O)O[C@@H]1CO,51
16,N[C@@H](CC(=O)O)C(=O)O[C@H]1C[C@H](n2cc(F)c(=O)[nH]c2=O)O[C@@H]1CO,53.9
17,CCCN(CCC)Cc1ccc(C(=O)OCCOCn2cnc3c(=O)[nH]c(N)nc32)cc1,9
18,Cc1cn([C@H]2C=C[C@@H](COC(=O)CNNC(=O)c3ccncc3)O2)c(=O)[nH]c1=O,60
19,Cc1cn([C@H]2C=C[C@@H](COC(=O)CNC(=O)c3ccncn3)O2)c(=O)[nH]c1=O,60
20,Cc1cn(CCOC(=O)CC[C@H](N)C(=O)N(C)CC(=O)O)c(=O)[nH]c1=O,61.3
21,CCCCCCCCCCOC(=O)[C@H](Cc1ccccc1)NC(=O)CN.Cl,61.5
22,CCCC(=O)Oc1c(-c2ccc(O)c(O)c2)oc2cc(O)cc(O)c2c1=O,63
23,COc1ccc2cc([C@H](C)C(=O)OCN(C)C(=O)c3ccccc3)ccc2c1,72
24,CC(C)C[C@H]1NC(=O)[C@H](Cc2ccccc2)NC(=O)CNC(=O)[C@@H](C)NC(=O)[C@H](Cc2ccc(O)cc2)NC(=O)/C=C\c2ccccc2OC1=O,72

row,Compound,half-life [min]
1,CN(CC(=O)O)C(=O)[C@@H](N)CCC(=O)OCCOCn1cnc2c(=O)[nH]c(N)nc21,72.7
2,CN(CC(=O)O)C(=O)[C@@H](N)CCC(=O)OCc1ccccc1,73.2
3,CCCCCCCCCCCC(=O)Oc1c(-c2ccc(O)c(O)c2)oc2cc(O)cc(O)c2c1=O,73.2
4,CCOC(=O)CN(COC(=O)[C@@H](C)c1ccc2cc(OC)ccc2c1)C(=O)c1ccccc1,78
5,O=C(OCc1ccccc1)[C@H]1O[C@@H](Oc2cc3oc(-c4ccc(O)cc4)cc(=O)c3c(O)c2O)[C@H](O)[C@@H](O)[C@@H]1O,88
6,CCCCOC(=O)[C@@H](N)Cc1ccc(O)c(O)c1,96
7,C[C@H](NC(=O)[C@H](N)CCC(=O)OCCc1ccccc1)C(=O)O,97
8,CC(C)(C)C(=O)OCN(c1ccc([N+](=O)[O-])cc1Oc1ccccc1)S(C)(=O)=O,102
9,N[C@@H](Cc1ccc(O)c(O)c1)C(=O)OCCCCO,105
10,CCCCCCCCCCCCOC(=O)[C@H](Cc1ccccc1)NC(=O)CN.Cl,112
11,C[C@H](NC(=O)[C@H](N)CCC(=O)OCc1ccc(F)cc1)C(=O)O,120
12,CC(C)C[C@H]1NC(=O)[C@H](Cc2ccccc2)NC(=O)CNC(=O)[C@@H](C)NC(=O)[C@H](Cc2ccc(O)cc2)NC(=O)OCOC1=O,124
13,CCCCC(=O)OCOC(=O)Cc1c(C)n(C(=O)c2ccc(Cl)cc2)c2ccc(OC)cc12,124
14,C[C@]12CCC(=O)C=C1CC[C@@H]1[C@@H]2[C@@H](O)C[C@@]2(C)[C@H]1CC[C@]2(O)C(=O)OCCl,132
15,C[C@H](NC(=O)[C@H](N)CCC(=O)OCc1ccccc1)C(=O)O,158
16,CCOC(=O)CN(COC(=O)Cc1ccccc1Nc1c(Cl)cccc1Cl)C(=O)c1ccccc1,162
17,CN(CC(=O)O)C(=O)[C@@H](N)CC(=O)OCc1ccccc1,180
18,CCCSc1ccc2c(c1)nc(NC(=O)OC)n2C(=O)OCC,8.32
19,CCCSc1ccc2nc(NC(=O)OC)n(C(=O)OCC)c2c1,7.19
20,Nc1nc(O)c2ncn(COCCOC(=O)c3ccc(CN4CCOCC4)cc3)c2n1,3.7
21,CCCSc1ccc2c(c1)nc(NC(=O)OC)n2COC(=O)c1ccc(CN)cc1.Cl.Cl,55.8
22,N[C@@H](CC(=O)O)C(=O)OC[C@H]1O[C@@H](n2cc(F)c(=O)[nH]c2=O)C[C@@H]1O,38.6
